Experimental data as given in patent US9023386B2, “Microspheres comprising nanocapsules containing a lipophilic drug” (Yissum Research Development Company of the Hebrew …, priority 2006, dated 2015).

Legend:
[1] = immunosuppression; cited from earlier work
[2] = cited from earlier work
[3] = system: P-gp; experiment: Caco-2 uptake study (apparent permeability); assay type: in vitro ADME; conditions: human; Caco-2, 25 μg/ml tacrolimus, Hanks buffer pH 7.4, 60 min, without verapamil
Experimental: Caco-2 monolayers (passage 73) were grown in Dulbecco's modified Eagle's medium supplemented with 10% fetal bovine serum, 1% L-glutamine, 1% nonessential amino acids, and 5% antibiotic-antimycotic solution at 37° C. in humidified air, 5% CO2 atmosphere. The culture medium was first replaced after 72 h and every 48 h thereafter. The uptake studies were conducted with monolayers between 8 to 10 days in culture. All diffusion experiments were performed over 1 h at 37° C. Prior to the experiments, the culture medium was replaced with transport medium and cell monolayers were subsequently equilibrated for 30 min at 37° C. before the uptake study. Transport medium was Hanks buffer composed of 136.89 mM NaCl, 5.36 mM KCl, 0.34 mM Na2HPO4, 0.44 mM KH2PO4, 0.41 mM MgSO4 7H2O, 19.45 mM glucose, 1.26 mM CaCl2, 0.49 mM MgCl2.6H2O, 4.17 mM NaHCO3, 10 mM HEPES, and the pH was adjusted to 7.4. […] The lysate was collected in clean tube and tacrolimus was determined by HPLC as described above. […]
The apparent permeability (Papp, cm/s) was calculated according to the following equation described by Schrickx and Fink-Gremmels (J. Schrickx and J. Fink-Gremmels. P-glycoprotein-mediated transport of oxytetracycline in the Caco-2 cell model. J. Vet Pharmacol. Therap. 30: 25-31 (2007).

[4] = In-vitro stability of tacrolimus in rat intestinal juice (pH 6.5); assay type: in vitro ADME
Experimental: The following solutions were added sequentially to a test tube: 300 μl of freshly thawed intestinal juice, 60 μl of 0.6 M phosphate buffer, pH 6.5 (the pH of the mixture of intestinal juice) and 25 μg/ml of tacrolimus in various formulations (up to 1.5 ml). The mixtures were stirred and incubated at 37° C. over time. At given time intervals of 5, 10, 20, 30, 45, 60, 90 and 120 min, the samples were withdrawn from the incubation, mixed with 150 μl of 0.5 M hydrochloric acid and 2 ml of ethyl acetate. The resulting mixtures were stirred vigorously and centrifuged at 4000 rpm (equivalent to 3000 g) over 10 min. The extraction of tacrolimus by ethyl acetate was repeated three times to ensure total removal of the drug from the mixtures. The different ethyl acetate layers (upper layers) were transferred to clean tubes and evaporated under nitrogen to dryness. The combined residues were dissolved in 1 ml of acetonitrile, and 50 μl were injected in the HPLC under the following conditions: Mobile phase Acetonitrile 100%, Flow rate 0.5 ml/min, Wavelength—213 nm, Column—LiChrospher® 100 RP-18 (5 μm), 4/120 mm.

C=CC[C@@H]1/C=C(\C)C[C@H](C)C[C@H](OC)[C@H]2O[C@@](O)(C(=O)C(=O)N3CCCC[C@H]3C(=O)O[C@H](/C(C)=C/[C@@H]3CC[C@@H](O)[C@H](OC)C3)[C@H](C)[C@@H](O)CC1=O)[C@H](C)C[C@@H]2OC [tacrolimus]
potency relative to cyclosporine [1]: 10-100 times
oral bioavailability ([2]; in vivo, po): 10-25%
dose excreted unchanged in the urine ([2]; in vivo): Less than 1%
drug bound by erythrocytes ([2]; in vivo): 75-80%
whole blood concentrations relative to plasma concentrations ([2]; in vivo): 10- to 30 times
elimination half-life ([2]; liver transplant patients): about 12 hours
Papp at 60 min, 25 μg/ml [3]: 2.05 ± 0.26 ×10⁻⁶ cm/s
tacrolimus stability incubated only with PBS (Control (−)) ([4]; PBS pH 6.5, no intestinal juice, 120 min incubation): remained intact
initial tacrolimus concentration decomposed / reduced ([4]; intestinal juice with PBS pH 6.5, 37° C., 25 μg/ml tacrolimus, up to 120 min): at least 50%
